Drawing on US6924278B2, “Aroyl-piperazine derivatives, their preparation and their use as tachykinin antagonists” (Fujisawa Pharmaceutical Co., Ltd., priority 1997, dated 2005), this text covers melting point for 42 compounds.

One may read the melting point as the temperature of the solid-liquid transition.

`Cl.Cl.O=C(c1cc(C(F)(F)F)cc(C(F)(F)F)c1)N1CCN(CC#Cc2cccnc2)C[C@H]1Cc1c[nH]c2ccccc12` showed a melting point of 180 to 190 °C.
Next, `Cl.Cl.O=C(c1cc(C(F)(F)F)cc(C(F)(F)F)c1)N1CCN(CC#Cc2cccnc2)C[C@H]1Cc1ccc2ccccc2c1`: 140 to 150 °C; `Cl.Cl.O=C(c1cc(C(F)(F)F)cc(C(F)(F)F)c1)N1CCN(C/C=C\c2cccnc2)C[C@H]1Cc1ccc2ccccc2c1`: 130 to 150 °C; `Cl.Cl.O=C(c1cc(C(F)(F)F)cc(C(F)(F)F)c1)N1CCN(CCCc2cccnc2)C[C@H]1Cc1ccc2ccccc2c1`: 138 to 148 °C.
The value for `Cc1ccc(C[C@@H]2CN(CC#CCN3CCSCC3)CCN2C(=O)c2cc(Cl)cc(Cl)c2)cc1C.Cl.Cl` was 128 °C (dec.); that for `Cl.Cl.O=C(c1cc(Cl)cc(Cl)c1)N1CCN(CC#CCN2CCSCC2)C[C@H]1Cc1c[nH]c2ccccc12` was 175 °C (dec.).
The value for `Cl.Cl.O=C(c1cc(Cl)cc(Cl)c1)N1CCN(CC#CCN2CCOCC2)C[C@H]1Cc1c[nH]c2ccccc12` was 165 °C (dec.).
For `Cl.Cl.O=C(c1cc(Cl)cc(Cl)c1)N1CCN(CC#CCN2CCOCC2)C[C@H]1Cc1ccc2ccccc2c1`, the melting point was 171 °C (dec.).
The value for `Cl.Cl.O=C(c1cc(Cl)cc(Cl)c1)N1CCN(CC#CCN2CCSCC2)C[C@H]1Cc1ccc(C(F)(F)F)cc1` was 172 °C (dec.).
The value for `Cl.Cl.O=C(c1cc(Cl)cc(Cl)c1)N1CCN(CC#CCN2CCOCC2)C[C@H]1Cc1ccc(C(F)(F)F)cc1` was 186 °C (dec.); that for `COc1ccc(C#CCN2CCN(C(=O)c3cc(C(F)(F)F)cc(C(F)(F)F)c3)[C@H](Cc3ccc(C)c(C)c3)C2)cn1.Cl.Cl` was 160 to 170 °C; that for `COc1ccc(C#CCN2CCN(C(=O)c3cc(C(F)(F)F)cc(C(F)(F)F)c3)[C@H](Cc3c[nH]c4ccccc34)C2)cn1.Cl.Cl` was 183 to 189 °C.
Next, `Cc1ccc(C[C@@H]2CN(CCCc3ccccn3)CCN2C(=O)c2cc(C(F)(F)F)cc(C(F)(F)F)c2)cc1C.Cl.Cl`: 120 to 130 °C; `Cl.Cl.O=C(c1cc(C(F)(F)F)cc(C(F)(F)F)c1)N1CCN(CCCc2cccnc2)C[C@H]1Cc1c[nH]c2ccccc12`: 150 to 160 °C.
Compound `Cl.Cl.O=C(c1cc(C(F)(F)F)cc(C(F)(F)F)c1)N1CCN(CCCCc2cccnc2)C[C@H]1Cc1c[nH]c2ccccc12` registered a melting point of 140 to 145 °C.
With `Cc1ccc(C[C@@H]2CN(CC#CCN3CCOC[C@@H]3CC(C)C)CCN2C(=O)c2cc(C(F)(F)F)cc(C(F)(F)F)c2)cc1C.Cl.Cl`, the melting point lay within 125 to 138 °C.
Next, `COc1ccncc1C#CCN1CCN(C(=O)c2cc(C(F)(F)F)cc(C(F)(F)F)c2)[C@H](Cc2c[nH]c3ccccc23)C1.Cl.Cl`: 162 to 167 °C; `COc1ccncc1C#CCN1CCN(C(=O)c2cc(C(F)(F)F)cc(C(F)(F)F)c2)[C@H](Cc2ccc(C)c(C)c2)C1.Cl.Cl`: 150 to 153 °C; `COc1ccncc1CCCN1CCN(C(=O)c2cc(C(F)(F)F)cc(C(F)(F)F)c2)[C@H](Cc2c[nH]c3ccccc23)C1.Cl.Cl`: 165 to 170 °C.
`COc1ccncc1CCCN1CCN(C(=O)c2cc(C(F)(F)F)cc(C(F)(F)F)c2)[C@H](Cc2ccc(C)c(C)c2)C1.Cl.Cl` registered a melting point of 159 to 168 °C.
`Cl.Cl.Nc1ccc(C#CCN2CCN(C(=O)c3cc(C(F)(F)F)cc(C(F)(F)F)c3)[C@H](Cc3c[nH]c4ccccc34)C2)cn1` displayed a melting point of 190 to 195 °C.
In the case of `Cc1ccc(C[C@@H]2CN(CC#Cc3ccc(N)nc3)CCN2C(=O)c2cc(C(F)(F)F)cc(C(F)(F)F)c2)cc1C.Cl.Cl`, the melting point lay within 183 to 189 °C.
`Cc1ccc(C[C@@H]2CN(C/C=C\c3cccnc3)CCN2C(=O)c2cc(C(F)(F)F)cc(C(F)(F)F)c2)cc1C.Cl.Cl`: the melting point fell in the range of 170 to 174 °C.
In the case of `COc1ccc(CCCN2CCN(C(=O)c3cc(C(F)(F)F)cc(C(F)(F)F)c3)[C@H](Cc3ccc(C)c(C)c3)C2)cn1.Cl.Cl`, the melting point is 127 to 137 °C.
Compound `COc1ccc(CCCN2CCN(C(=O)c3cc(C(F)(F)F)cc(C(F)(F)F)c3)[C@H](Cc3c[nH]c4ccccc34)C2)cn1.Cl.Cl` showed a melting point of 195 to 200 °C.
The value for `Cl.Cl.O=C(c1cc(C(F)(F)F)cc(C(F)(F)F)c1)N1CCN(CCCCc2ccccn2)C[C@H]1Cc1c[nH]c2ccccc12` was 155 to 160 °C.
The value for `Cc1ccc(C[C@@H]2CN(CCCn3cccn3)CCN2C(=O)c2cc(C(F)(F)F)cc(C(F)(F)F)c2)cc1C.Cl` was 73 to 75 °C; that for `Cl.Cl.O=C(c1cc(C(F)(F)F)cc(C(F)(F)F)c1)N1CCN(CC#Cc2ccccn2)C[C@H]1Cc1c[nH]c2ccccc12` was 160 to 166 °C.
The value for `Cl.Cl.O=C(c1cc(C(F)(F)F)cc(C(F)(F)F)c1)N1CCN(CCC#Cc2cccnc2)C[C@H]1Cc1c[nH]c2ccccc12` was 175 to 185 °C; that for `CCOC[C@H]1COCCN1CC#CCN1CCN(C(=O)c2cc(C(F)(F)F)cc(C(F)(F)F)c2)[C@H](Cc2ccc(C)c(C)c2)C1.Cl.Cl` was 155 to 160 °C; that for `Cc1ccc(C[C@@H]2CN(CC#CCN3CCOC[C@@H]3CO)CCN2C(=O)c2cc(C(F)(F)F)cc(C(F)(F)F)c2)cc1C.Cl.Cl` was 130 to 150 °C.
Take `COC[C@@H]1COCCN1C/C=C/CN1CCN(C(=O)c2cc(C(F)(F)F)cc(C(F)(F)F)c2)[C@H](Cc2ccc(C)c(C)c2)C1.Cl.Cl`: the melting point was 240 to 250 °C.
For `Cc1ccc(C[C@@H]2CN(CC#CCN3CCOC[C@H]3C(=O)N(C)C)CCN2C(=O)c2cc(C(F)(F)F)cc(C(F)(F)F)c2)cc1C.Cl.Cl`, the melting point lay in the range of 150 to 160 °C.
In turn, `CC[C@@H]1COCCN1CC#CCN1CCN(C(=O)c2cc(C(F)(F)F)cc(C(F)(F)F)c2)[C@H](Cc2c[nH]c3ccccc23)C1.Cl.Cl` returned a melting point of 176 to 180 °C.
`COC[C@H]1CCCN1CC#CCN1CCN(C(=O)c2cc(C(F)(F)F)cc(C(F)(F)F)c2)[C@H](Cc2c[nH]c3ccccc23)C1.Cl.Cl`: the melting point fell in the range of 190 to 195 °C.
The compound `COC[C@@H]1COCCN1CCCN1CCN(C(=O)c2cc(C(F)(F)F)cc(C(F)(F)F)c2)[C@H](Cc2ccc(C)c(C)c2)C1.Cl.Cl` yielded a melting point of 80 to 100 °C.
The compound `COCC1CN(CCN2CCN(C(=O)c3cc(C(F)(F)F)cc(C(F)(F)F)c3)[C@H](Cc3ccc(C)c(C)c3)C2)CCO1.Cl.Cl` (stereo partly drawn) gave a melting point of 150 to 154 °C.
The value for `COC[C@H]1COCCN1CCN1CCN(C(=O)c2cc(C(F)(F)F)cc(C(F)(F)F)c2)[C@H](Cc2c[nH]c3ccccc23)C1.Cl.Cl` was 175 to 185 °C.
Next, `C[C@H]1COC[C@H](C)N1CCN1CCN(C(=O)c2cc(C(F)(F)F)cc(C(F)(F)F)c2)[C@H](Cc2c[nH]c3ccccc23)C1.Cl.Cl`: 170 to 180 °C; `COc1cccc(CC2CN(CC#CCN3CCOCC3(C)C)CCN2C(=O)c2cc(C(F)(F)F)cc(C(F)(F)F)c2)c1OC.Cl.Cl` (stereo not drawn): 170 °C.
In the case of `CNc1cc(C(=O)N2CCN(CC#CCN3CCOCC3(C)C)C[C@H]2Cc2c[nH]c3ccccc23)cc(C(F)(F)F)c1.Cl.Cl`, the melting point lay within 215 to 230 °C.
In turn, `CN(C)c1cccc(CC2CN(CC#CCN3CCOCC3(C)C)CCN2C(=O)c2cc(C(F)(F)F)cc(C(F)(F)F)c2)c1.Cl.Cl.Cl` (stereo not drawn) yielded a melting point of 205 to 210 °C.
